One test has as its target human MER (528-end) (Homo sapiens (Human), UniProt Q12866). Briefly: HTRF Kinase Activity Biochemical Assay (KinEASE-TK). Conditions: 10 uM ATP. The gist of the method:
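Activity read-out is the HTRF ratio (665 nm over 620 nm emission, ×10,000; excitation 340 nm) after 1 h detection with 0.375 nM Eu3+-cryptate anti-TK antibody plus 0.062 uM SA-XL665. Preceding kinase step: human MER (528-end), biotinylated TK substrate, 1 h, room temperature.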
(TR-FRET usually uses a lanthanide donor and a delayed reading to cut background.)

The target of test [1] is BCR fusion to kinase domain of MerTK (Ba/F3-MerTK) (Homo sapiens, UniProt Q12866). Briefly: In Cell TAM Kinase Assay Using BaF3 Cellular System. It is filed as cell-based, murine. Particulars: Ba/F3 BCR-kinase fusion proliferation, 72 hours, Cell Titer Glo, kinase not given. The text has this: Three Ba/F3 cell lines (a murine IL-3 dependent pro-B cell line) expressing BCR fusions to the kinase domains of either MerTK (Ba/F3-MerTK), Axl (Ba/F3-Axl), or Tyro3 (Ba/F3-Tyro3) were purchased from Advanced Cellular Dynamics. The IL-3 independence of all 3 cell lines was confirmed. After thawing, the 3 Ba/F3 cell lines were split and maintained in cell culture media, which consisted of RPMI-1640-HEPES (Thermo-Cat #22400-089) with 1× Glutamax (Thermo-Cat #35050-061) and 10% FBS (Sigma-Cat #F4135 (500 ml), at a cell density range of 0.05×10^6−1×10^6 cells/mL 4 days before used in the routine screen. Compound plates were prepared using Nunc™ white 384-well optical bottom plates (ThermoFisher, USA) with compound in 25 nL dimethyl sulfoxide in each well. For routine assays, each of the 3 Ba/F3 cell lines was seeded at 1,000 cells per well with 25 µL of cell culture media directly into 384-well compound plates and incubated for 72 hours. Cell proliferation was then measured by adding 25 μL of Cell Titer Glo 2.0 (Promega, USA). After incubating with Cell Titer Glo at room temperature for 30 mins, the luminescence intensity, which quantifies the cell viability, was measured using an Envision™ plate reader (PerkinElmer, USA). […] In the presence of IL-3, the proliferation of the Ba/F3-Tyro3 cells is no longer dependent on the Tyro3 kinase activity.
(Cellular ATP, detected with luciferase, serves as a proxy for viable cell number.)

Where two headings read alike, the source gives them in different places.

The term IC50 denotes the concentration needed to halve the response being measured.

Sequence of human MER (528-end) (Q12866 528-999 limits assumed): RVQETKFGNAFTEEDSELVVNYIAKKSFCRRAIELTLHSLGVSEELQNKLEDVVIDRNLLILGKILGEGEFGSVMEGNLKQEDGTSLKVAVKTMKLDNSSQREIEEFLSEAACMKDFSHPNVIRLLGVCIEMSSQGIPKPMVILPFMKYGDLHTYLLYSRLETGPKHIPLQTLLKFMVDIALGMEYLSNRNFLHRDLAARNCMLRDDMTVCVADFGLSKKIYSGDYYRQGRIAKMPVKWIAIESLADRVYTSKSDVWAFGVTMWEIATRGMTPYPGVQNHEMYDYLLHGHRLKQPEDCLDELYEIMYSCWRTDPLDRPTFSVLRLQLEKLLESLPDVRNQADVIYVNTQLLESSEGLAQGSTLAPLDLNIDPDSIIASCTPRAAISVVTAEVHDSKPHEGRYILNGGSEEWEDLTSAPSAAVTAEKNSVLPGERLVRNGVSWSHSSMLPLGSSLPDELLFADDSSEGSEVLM
Sequence of BCR fusion to kinase domain of MerTK (Ba/F3-MerTK) (Q12866 21-999 limits assumed, stated change not applied): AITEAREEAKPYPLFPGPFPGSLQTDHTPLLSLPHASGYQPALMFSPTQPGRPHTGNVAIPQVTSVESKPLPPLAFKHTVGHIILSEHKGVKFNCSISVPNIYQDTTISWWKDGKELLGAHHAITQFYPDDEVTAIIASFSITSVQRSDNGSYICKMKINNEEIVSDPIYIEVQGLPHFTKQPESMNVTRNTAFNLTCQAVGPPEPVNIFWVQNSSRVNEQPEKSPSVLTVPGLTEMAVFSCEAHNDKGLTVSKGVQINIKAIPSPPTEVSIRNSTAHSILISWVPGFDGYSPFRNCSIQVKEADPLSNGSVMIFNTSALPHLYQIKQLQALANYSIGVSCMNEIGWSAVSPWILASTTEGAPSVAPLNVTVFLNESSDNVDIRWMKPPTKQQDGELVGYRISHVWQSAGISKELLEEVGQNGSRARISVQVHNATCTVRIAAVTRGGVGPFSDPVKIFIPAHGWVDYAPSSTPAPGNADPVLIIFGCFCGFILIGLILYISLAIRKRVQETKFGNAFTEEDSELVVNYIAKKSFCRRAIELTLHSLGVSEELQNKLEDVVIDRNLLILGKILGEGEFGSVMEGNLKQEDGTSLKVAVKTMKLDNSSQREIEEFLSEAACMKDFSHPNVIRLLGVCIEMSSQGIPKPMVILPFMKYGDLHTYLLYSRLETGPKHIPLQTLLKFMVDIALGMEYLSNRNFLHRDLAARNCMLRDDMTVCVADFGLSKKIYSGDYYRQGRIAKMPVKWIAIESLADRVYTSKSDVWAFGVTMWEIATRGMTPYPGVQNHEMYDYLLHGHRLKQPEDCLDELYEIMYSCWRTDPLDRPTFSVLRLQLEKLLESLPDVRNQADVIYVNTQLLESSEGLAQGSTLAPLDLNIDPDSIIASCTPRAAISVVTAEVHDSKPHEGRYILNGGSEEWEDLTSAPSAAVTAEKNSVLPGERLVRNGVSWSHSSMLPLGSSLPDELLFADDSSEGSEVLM

In the case of `Nc1ncc(-c2ccc(C(=O)NC3CCOCC3)cc2)cc1C(=O)N[C@@H]1CCN(C(=O)c2ccc(-c3ccccc3Cl)cc2)C1` [Example 593, (R)-2-amino-N-(1-(2′-chloro-[1,1′-biphenyl]-4-carbonyl)pyrrolidin-3-yl)-5-(4-((tetrahydro-2H-pyran-4-yl)carbamoyl)phenyl)nicotinamide], the IC50 is 10 to 100 nM at human MER (528-end) and > 1000 nM in test [1] (read-out: IC50).
In the case of `Cn1cc(-c2cnc(N)c(C(=O)N[C@@H]3CCN(C(=O)c4ccc(-c5ccc(Oc6ccc(CN)cc6)cc5)cc4)C3)c2)cn1` [Example 634, (R)-2-amino-N-(1-(4′-(4-(aminomethyl)phenoxy)-[1,1′-biphenyl]-4-carbonyl)pyrrolidin-3-yl)-5-(1-methyl-1H-pyrazol-4-yl)nicotinamide], the concentration for half-maximal inhibition (IC50) against human MER (528-end) was < 10 nM; in test [1] (read-out: IC50) it was 500 to 1000 nM.
The matching figures for `Cn1cc(-c2cnc(N)c(C(=O)N[C@@H]3CCN(C(=O)c4ccc(-c5ccc(Oc6ccc(CO)cc6)cc5)cc4)C3)c2)cn1` [Example 635, (R)-2-amino-N-(1-(4′-(4-(hydroxymethyl)phenoxy)-[1,1′-biphenyl]-4-carbonyl)pyrrolidin-3-yl)-5-(1-methyl-1H-pyrazol-4-yl)nicotinamide]: 10 to 100 nM and 100 to 500 nM.
`CN(C)Cc1ccc(Oc2ccc(-c3ccc(C(=O)N4CC[C@@H](NC(=O)c5cc(-c6cnn(C)c6)cnc5N)C4)cc3)cc2)cc1` [Example 636, (R)-2-amino-N-(1-(4′-(4-((dimethylamino)methyl)phenoxy)-[1,1′-biphenyl]-4-carbonyl)pyrrolidin-3-yl)-5-(1-methyl-1H-pyrazol-4-yl)nicotinamide]: the values for the IC50 (at human MER (528-end); in test [1] (read-out: IC50)) were 10 to 100 nM and 100 to 500 nM, respectively.
As to `CN1CCC(Cc2ccc(-c3ccc(C(=O)N4CC[C@@H](NC(=O)c5cc(-c6cnn(C)c6)cnc5N)C4)cc3)cc2)CC1` [Example 643, (R)-2-amino-5-(1-methyl-1H-pyrazol-4-yl)-N-(1-(4′-((1-methylpiperidin-4-yl)methyl)-[1,1′-biphenyl]-4-carbonyl)pyrrolidin-3-yl)nicotinamide], the IC50 against human MER (528-end) is 100 to 1000 nM; in test [1] (read-out: IC50) it was > 1000 nM.
For the compound `CN1CCC(N(C)c2ccc3cc(C(=O)N4CC[C@@H](NC(=O)c5cc(-c6cnn(C)c6)cnc5N)C4)ccc3c2)CC1` [Example 644, (R)-2-amino-N-(1-(6-(methyl(1-methylpiperidin-4-yl)amino)-2-naphthoyl)pyrrolidin-3-yl)-5-(1-methyl-1H-pyrazol-4-yl)nicotinamide], the IC50 against human MER (528-end) lay in the range of 10 to 100 nM; in test [1] (read-out: IC50) it was 100 to 500 nM.
The matching figures for `Cc1cccc(-c2ccc(C(=O)N3CC[C@@H](NC(=O)c4cc(-c5cnn(C)c5)cnc4N)C3)cc2)c1` [Example 656, (R)-2-amino-5-(1-methyl-1H-pyrazol-4-yl)-N-(1-(3′-methyl-[1,1′-biphenyl]-4-carbonyl)pyrrolidin-3-yl)nicotinamide]: 10 to 100 nM and < 100 nM.
In the case of `CCc1cccc(-c2ccc(C(=O)N3CC[C@@H](NC(=O)c4cc(-c5cnn(C)c5)cnc4N)C3)cc2)c1` [Example 657, (R)-2-amino-N-(1-(3′-ethyl-[1,1′-biphenyl]-4-carbonyl)pyrrolidin-3-yl)-5-(1-methyl-1H-pyrazol-4-yl)nicotinamide], the values for the half-inhibitory concentration (IC50) (at human MER (528-end); in test [1] (read-out: IC50)) were 10 to 100 nM and 100 to 500 nM, respectively.
The matching figures for `CC(C)c1cccc(-c2ccc(C(=O)N3CC[C@@H](NC(=O)c4cc(-c5cnn(C)c5)cnc4N)C3)cc2)c1` [Example 658, (R)-2-amino-N-(1-(3′-isopropyl-[1,1′-biphenyl]-4-carbonyl)pyrrolidin-3-yl)-5-(1-methyl-1H-pyrazol-4-yl)nicotinamide]: 100 to 1000 nM and 500 to 1000 nM.
Take `COc1ccc(-c2ccc(C(=O)N3CC[C@@H](NC(=O)c4cc(-c5cnn(C)c5)cnc4N)C3)cc2)cc1OC` [Example 659, (R)-2-amino-N-(1-(3′,4′-dimethoxy-[1,1′-biphenyl]-4-carbonyl)pyrrolidin-3-yl)-5-(1-methyl-1H-pyrazol-4-yl)nicotinamide]: the IC50 on human MER (528-end) was 100 to 1000 nM; in test [1] (read-out: IC50) it was > 1000 nM.
For `Cn1cc(-c2cnc(N)c(C(=O)N[C@@H]3CCN(C(=O)c4ccc(-c5ccc(Cl)c(F)c5)cc4)C3)c2)cn1` [Example 661, (R)-2-amino-N-(1-(4′-chloro-3′-fluoro-[1,1′-biphenyl]-4-carbonyl)pyrrolidin-3-yl)-5-(1-methyl-1H-pyrazol-4-yl)nicotinamide], in that order: 10 to 100 nM and 500 to 1000 nM.
The matching figures for `Cn1cc(-c2cnc(N)c(C(=O)N[C@@H]3CCN(C(=O)c4ccc(-c5cccc(F)c5Cl)cc4)C3)c2)cn1` [Example 673, (R)-2-amino-N-(1-(2′-chloro-3′-fluoro-[1,1′-biphenyl]-4-carbonyl)pyrrolidin-3-yl)-5-(1-methyl-1H-pyrazol-4-yl)nicotinamide]: 10 to 100 nM and 500 to 1000 nM.
As to `Cn1cc(-c2cnc(N)c(C(=O)N[C@@H]3CCN(C(=O)c4ccc(-c5ccc(C(=O)N6CCC(=O)CC6)cc5)cc4)C3)c2)cn1` [Example 679, (R)-2-amino-5-(1-methyl-1H-pyrazol-4-yl)-N-(1-(4′-(4-oxopiperidine-1-carbonyl)-[1,1′-biphenyl]-4-carbonyl)pyrrolidin-3-yl)nicotinamide], the IC50 (against human MER (528-end); in test [1]) was > 1000 nM throughout.
On to `Cn1cc(-c2cnc(N)c(C(=O)N[C@@H]3CCN(C(=O)c4cc5ccccc5n4C)C3)c2)cn1` [Example 695, (R)-2-amino-N-(1-(1-methyl-1H-indole-2-carbonyl)pyrrolidin-3-yl)-5-(1-methyl-1H-pyrazol-4-yl)nicotinamide], for which the half-inhibitory concentration (IC50) (at human MER (528-end); in test [1] (read-out: IC50)) was > 1000 nM throughout.
As to `Cn1cc(-c2cnc(N)c(C(=O)N[C@@H]3CCN(C(=O)c4cc5cc(F)ccc5[nH]4)C3)c2)cn1` [Example 696, (R)-2-amino-N-(1-(5-fluoro-1H-indole-2-carbonyl)pyrrolidin-3-yl)-5-(1-methyl-1H-pyrazol-4-yl)nicotinamide], the IC50 (on human MER (528-end); in test [1] (read-out: IC50)) was > 1000 nM each time.
As for `Cn1cc(-c2cnc(N)c(C(=O)N[C@@H]3CCN(C(=O)c4cc5ccccc5[nH]4)C3)c2)cn1` [Example 697, (R)—N-(1-(1H-indole-2-carbonyl)pyrrolidin-3-yl)-2-amino-5-(1-methyl-1H-pyrazol-4-yl)nicotinamide], the 50% inhibitory concentration (IC50) (against human MER (528-end); in test [1] (read-out: IC50)) was > 1000 nM in each case.
In the case of `Cc1[nH]c2cc(C(=O)N3CC[C@@H](NC(=O)c4cc(-c5cnn(C)c5)cnc4N)C3)ccc2c1C` [Example 698, (R)-2-amino-N-(1-(2,3-dimethyl-1H-indole-6-carbonyl)pyrrolidin-3-yl)-5-(1-methyl-1H-pyrazol-4-yl)nicotinamide], the figures for the half-maximal inhibitory concentration (IC50) (on human MER (528-end); in test [1] (read-out: IC50)) were 100 to 1000 nM and > 1000 nM, respectively.
The matching figures for `Cn1cc(-c2cnc(N)c(C(=O)N[C@@H]3CCN(C(=O)c4ccc5cccnc5n4)C3)c2)cn1` [Example 699, (R)—N-(1-(1,8-naphthyridine-2-carbonyl)pyrrolidin-3-yl)-2-amino-5-(1-methyl-1H-pyrazol-4-yl)nicotinamide]: > 1000 nM and > 1000 nM.
Turning to `Cn1cc(-c2cnc(N)c(C(=O)N[C@@H]3CCN(C(=O)c4ccc5cnccc5n4)C3)c2)cn1` [Example 700, (R)—N-(1-(1,6-naphthyridine-2-carbonyl)pyrrolidin-3-yl)-2-amino-5-(1-methyl-1H-pyrazol-4-yl)nicotinamide], the IC50 (against human MER (528-end); in test [1] (read-out: IC50)) was > 1000 nM throughout.
With `CCn1c(C(=O)N2CC[C@@H](NC(=O)c3cc(-c4cnn(C)c4)cnc3N)C2)cc2ccccc21` [Example 701, (R)-2-amino-N-(1-(1-ethyl-1H-indole-2-carbonyl)pyrrolidin-3-yl)-5-(1-methyl-1H-pyrazol-4-yl)nicotinamide], the IC50 (at human MER (528-end); in test [1] (read-out: IC50)) was > 1000 nM in each case.
On to `Cn1cc(-c2cnc(N)c(C(=O)N[C@@H]3CCN(C(=O)c4cc5ccccc5n4Cc4ccccc4)C3)c2)cn1` [Example 702, (R)-2-amino-N-(1-(1-benzyl-1H-indole-2-carbonyl)pyrrolidin-3-yl)-5-(1-methyl-1H-pyrazol-4-yl)nicotinamide], for which the 50% inhibitory concentration (IC50) (against human MER (528-end); in test [1] (read-out: IC50)) was > 1000 nM in each case.
Take `Cn1cc(-c2cnc(N)c(C(=O)N[C@@H]3CCN(C(=O)c4cc5c(C(F)(F)F)ccc(Cl)c5n4C)C3)c2)cn1` [Example 703, (R)-2-amino-N-(1-(7-chloro-1-methyl-4-(trifluoromethyl)-1H-indole-2-carbonyl)pyrrolidin-3-yl)-5-(1-methyl-1H-pyrazol-4-yl)nicotinamide]: the half-maximal inhibitory concentration (IC50) (on human MER (528-end); in test [1] (read-out: IC50)) was > 1000 nM throughout.

Values taken from patent US12378224B2 (Dong-A Socio Holdings Co., Ltd., priority 2016, dated 2025).
